For one experiment, the target named is Recombinant human FGFR1 (Homo sapiens, UniProt P11362). The experiment in a line: Transcreener Kinase Assay of FGFR1. The experiment is classed as biochemical. As to conditions: read-out: FGFR1 (FP) IC50.
For the next experiment, the target named is Recombinant human FGFR2 (Homo sapiens, UniProt P21802). Description: Transcreener Kinase Assay of FGFR2. The experiment is classed as biochemical. To be noted: read-out: FGFR2 (FP) IC50.
The next experiment concerns the target FGFR3 kinase (Homo sapiens, UniProt P22607). Description: Z-Lyte Kinase Assay of FGFR3. The experiment is classed as biochemical. The gist of the method:
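FRET peptide-cleavage format: 1 h kinase reaction at RT (25-30[…]), then 1 h protease development, then stop and dual-emission read (Ex400, Em445/520 nm). Working solutions: kinase 0.7 μg/ml, Tyr 4 peptide 4 μM, ATP 300 uM in 1.33× buffer; eight compound concentrations from 1 μM, 2% DMSO final.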

Another experiment deals with KG-1. The experiment in a line: Cellular Proliferation Assay (Cell Counting Kit-8), KG-1. The experiment is classed as cell-based. As to conditions: Homo sapiens, KG1 cells, 72 hours. Put shortly:
(§1)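 Proliferation was read as OD at 450 nm after 1 h with CCK-8, following 72 h drug exposure at 37 °C, 5% CO2. Inhibition was calculated against cells in 0.5% DMSO minus medium blank, and the 50% point reported. The compound series (10–0.004 μM, pre-addition, in 5% DMSO) was added one day after plating KG-1, SNU-16 and RT-112 at 30,000, 5,000 and 1,000 cells/well respectively.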

The next experiment deals with SNU-16. The experiment in a line: Cellular Proliferation Assay (Cell Counting Kit-8), SNU-16. The experiment is classed as cell-based. To be noted: Homo sapiens, SNU-16 cells, 72 hours. Put shortly: as §1
The next experiment has as its system RT-112. Description: Cellular Proliferation Assay (Cell Counting Kit-8), RT-112. The experiment is classed as cell-based. As to conditions: Homo sapiens, RT-112 cells, 72 hours. Put shortly: as §1

Structures are written as SMILES.

Chain of FGFR3 kinase (P22607 23-806): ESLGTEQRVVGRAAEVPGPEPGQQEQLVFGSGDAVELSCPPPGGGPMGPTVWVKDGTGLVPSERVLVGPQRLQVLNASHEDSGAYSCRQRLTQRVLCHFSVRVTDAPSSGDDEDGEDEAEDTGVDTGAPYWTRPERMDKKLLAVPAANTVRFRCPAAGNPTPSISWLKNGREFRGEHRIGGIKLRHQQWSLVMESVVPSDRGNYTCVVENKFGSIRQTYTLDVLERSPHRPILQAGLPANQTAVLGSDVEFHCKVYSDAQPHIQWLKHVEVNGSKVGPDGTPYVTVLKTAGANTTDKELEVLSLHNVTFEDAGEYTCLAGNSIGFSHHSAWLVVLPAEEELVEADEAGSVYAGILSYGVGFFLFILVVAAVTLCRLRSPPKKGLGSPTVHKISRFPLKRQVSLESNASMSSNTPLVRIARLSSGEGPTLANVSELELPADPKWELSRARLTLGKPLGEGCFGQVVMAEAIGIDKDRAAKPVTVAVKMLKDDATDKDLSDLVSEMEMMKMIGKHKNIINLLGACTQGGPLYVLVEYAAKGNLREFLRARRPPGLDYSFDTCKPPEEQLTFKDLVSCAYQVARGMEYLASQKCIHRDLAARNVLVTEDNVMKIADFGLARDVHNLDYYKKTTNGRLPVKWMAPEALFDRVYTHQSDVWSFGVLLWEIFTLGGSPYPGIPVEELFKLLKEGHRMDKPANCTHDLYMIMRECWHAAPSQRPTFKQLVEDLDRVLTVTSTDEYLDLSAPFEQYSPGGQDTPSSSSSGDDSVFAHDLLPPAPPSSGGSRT
Chain of Recombinant human FGFR2 (P21802 22-821): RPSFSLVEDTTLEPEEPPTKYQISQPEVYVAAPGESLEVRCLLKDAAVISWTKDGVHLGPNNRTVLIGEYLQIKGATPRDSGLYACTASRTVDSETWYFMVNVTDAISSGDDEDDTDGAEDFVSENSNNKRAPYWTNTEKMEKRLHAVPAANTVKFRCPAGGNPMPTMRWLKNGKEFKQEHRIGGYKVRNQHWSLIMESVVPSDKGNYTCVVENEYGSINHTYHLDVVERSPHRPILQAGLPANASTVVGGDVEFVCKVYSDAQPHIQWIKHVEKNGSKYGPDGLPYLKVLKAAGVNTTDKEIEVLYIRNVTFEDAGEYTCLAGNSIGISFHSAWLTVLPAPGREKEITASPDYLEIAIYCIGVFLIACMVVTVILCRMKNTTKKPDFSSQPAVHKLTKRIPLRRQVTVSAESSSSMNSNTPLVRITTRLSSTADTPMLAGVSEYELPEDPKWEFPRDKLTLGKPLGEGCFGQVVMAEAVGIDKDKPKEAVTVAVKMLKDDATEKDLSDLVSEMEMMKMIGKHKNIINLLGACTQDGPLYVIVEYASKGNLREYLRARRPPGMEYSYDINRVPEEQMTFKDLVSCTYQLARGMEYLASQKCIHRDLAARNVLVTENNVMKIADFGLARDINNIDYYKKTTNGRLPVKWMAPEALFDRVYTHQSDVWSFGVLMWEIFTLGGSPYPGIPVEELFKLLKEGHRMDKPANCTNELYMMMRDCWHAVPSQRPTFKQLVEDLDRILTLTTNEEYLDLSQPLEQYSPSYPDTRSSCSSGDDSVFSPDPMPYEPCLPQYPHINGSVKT
Chain of Recombinant human FGFR1 (P11362 22-822): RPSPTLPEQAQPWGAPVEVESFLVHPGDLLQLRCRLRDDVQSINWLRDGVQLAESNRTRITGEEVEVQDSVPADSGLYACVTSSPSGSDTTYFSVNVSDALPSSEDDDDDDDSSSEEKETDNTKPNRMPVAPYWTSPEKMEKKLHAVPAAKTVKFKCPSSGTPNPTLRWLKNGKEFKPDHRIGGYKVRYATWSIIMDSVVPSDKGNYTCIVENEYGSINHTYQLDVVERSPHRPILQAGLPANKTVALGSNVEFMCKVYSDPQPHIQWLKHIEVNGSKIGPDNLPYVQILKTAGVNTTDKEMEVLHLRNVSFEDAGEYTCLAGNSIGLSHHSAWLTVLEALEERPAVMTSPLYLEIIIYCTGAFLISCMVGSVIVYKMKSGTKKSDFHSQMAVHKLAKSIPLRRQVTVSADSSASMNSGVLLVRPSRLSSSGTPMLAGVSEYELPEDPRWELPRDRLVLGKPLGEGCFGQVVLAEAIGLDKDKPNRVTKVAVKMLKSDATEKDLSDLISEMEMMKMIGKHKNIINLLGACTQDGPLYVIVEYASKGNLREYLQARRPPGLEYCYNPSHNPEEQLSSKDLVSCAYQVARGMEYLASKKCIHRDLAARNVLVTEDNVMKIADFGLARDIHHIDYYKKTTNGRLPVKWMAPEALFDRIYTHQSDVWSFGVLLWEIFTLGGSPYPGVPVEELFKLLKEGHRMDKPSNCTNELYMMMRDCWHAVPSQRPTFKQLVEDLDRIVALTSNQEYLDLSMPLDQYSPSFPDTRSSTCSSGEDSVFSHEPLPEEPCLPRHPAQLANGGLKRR

With `CNC(=O)c1cc(CCc2cnc(Nc3ccc(N4C[C@@H](C)N[C@@H](C)C4)c(C)c3)nc2)c(Cl)c(OC)c1` [Compound 208], the concentration for half-maximal inhibition (IC50) – broadly, the concentration needed to halve the response being measured – on Recombinant human FGFR1 worked out at 10 nM; on Recombinant human FGFR2, 5 nM; against FGFR3 kinase, 9 nM; with KG-1, 60 nM; in the experiment with SNU-16, 17 nM; in the experiment on RT-112, 21 nM.

Take `CNC(=O)c1cc(CCc2cnc(Nc3ccc4c(C)n(C)nc4c3)nc2)c(Cl)c(OC)c1` [Compound 84]: the IC50 at Recombinant human FGFR1 came out at 19 nM; at Recombinant human FGFR2 it was 7 nM; at FGFR3 kinase it was 16 nM; in the experiment on KG-1, 248 nM; in the experiment with SNU-16 it was 239 nM; with RT-112, 122 nM.

As to `CNC(=O)c1cc(CCc2cnc(Nc3ccc(N4CCNCC4)cc3)nc2)c(Cl)c(OC)c1` [Compound 196], the concentration for half-maximal inhibition (IC50) on Recombinant human FGFR1 was determined as 6 nM; at Recombinant human FGFR2, 5 nM; on FGFR3 kinase, 9 nM; in the experiment with KG-1, 51 nM; with SNU-16 it was 14 nM; in the experiment with RT-112 it was 20 nM.

`CNC(=O)c1cc(COc2cnc(Nc3ccc(N4C[C@@H](C)N[C@@H](C)C4)nc3)nc2)c(F)c(OC)c1` [Compound 201]: the IC50 at Recombinant human FGFR1 was found to be 29 nM; on Recombinant human FGFR2 it was 12 nM; on FGFR3 kinase, 19 nM; in the experiment on KG-1, 1100 nM; in the experiment with SNU-16, 19 nM; with RT-112, 66 nM.

For the compound `CCn1cc(Nc2ncc(CCc3cc(C(=O)NC)cc(OC)c3Br)cn2)cn1` [Compound 83], the half-maximal inhibitory concentration (IC50) on Recombinant human FGFR1 is 15 nM; on Recombinant human FGFR2 it was 9 nM; on FGFR3 kinase, 35 nM; with KG-1 it was 53 nM; with SNU-16, 55 nM; with RT-112, 201 nM.

On to `CNC(=O)c1cc(CCc2cnc(Nc3cccc(N4CCOCC4)c3)nc2)c(F)c(OC)c1` [Compound 38], for which the 50% inhibitory concentration (IC50) at Recombinant human FGFR1 was 8 nM; at Recombinant human FGFR2 it was 3 nM; at FGFR3 kinase, 20 nM; in the experiment on KG-1 it was 28 nM; with SNU-16 it was 30 nM; with RT-112, 86 nM.

With `CNC(=O)c1cc(CCc2cnc(Nc3ccc4c(c3)OCO4)nc2)c(F)c(OC)c1` [Compound 31], the IC50 was 42 nM on Recombinant human FGFR1; 23 nM at Recombinant human FGFR2; 287 nM at FGFR3 kinase; 178 nM in the experiment with KG-1; 236 nM in the experiment on SNU-16; 491 nM with RT-112.

Take `CNC(=O)c1cc(CCc2cnc(Nc3cnn(CCCOC)c3)nc2)c(F)c(OC)c1` [Compound 126]: the IC50 at Recombinant human FGFR1 is 15 nM; at Recombinant human FGFR2 it was 8 nM; against FGFR3 kinase, 17 nM; in the experiment with KG-1, 45 nM; in the experiment with SNU-16, 18 nM; with RT-112, 112 nM.

With `CCN(CC)CCn1cc(Nc2ncc(CCc3cc(C(=O)NC)cc(OC)c3F)cn2)cn1` [Compound 136], the IC50 on Recombinant human FGFR1 stood at 23 nM; at Recombinant human FGFR2, 11 nM; on FGFR3 kinase it was 18 nM; with KG-1, 92 nM; in the experiment on SNU-16, 25 nM; in the experiment with RT-112, 37 nM.

Turning to `CNC(=O)c1cc(CCc2cnc(Nc3cnn(CCCN4CCCC4)c3)nc2)c(F)c(OC)c1` [Compound 138], the 50% inhibitory concentration (IC50) on Recombinant human FGFR1 stood at 9 nM; at Recombinant human FGFR2 it was 7 nM; against FGFR3 kinase, 8 nM; in the experiment on KG-1, 617 nM; in the experiment with SNU-16 it was 32 nM; in the experiment with RT-112 it was 202 nM.

Turning to `CCN1CCC[C@H](n2cc(Nc3ncc(CCc4cc(C(=O)NC)cc(OC)c4F)cn3)cn2)C1` [Compound 175], the IC50 at Recombinant human FGFR1 was 9 nM; on Recombinant human FGFR2, 6 nM; at FGFR3 kinase it was 8 nM; in the experiment on KG-1, 23 nM; in the experiment on SNU-16, 14 nM; in the experiment with RT-112, 57 nM.

`CNC(=O)c1cc(CCc2cnc(Nc3cnn(CCCN(C)C)c3)nc2)c(F)c(OC)c1` [Compound 133]: the concentration for half-maximal inhibition (IC50) at Recombinant human FGFR1 worked out at 20 nM; at Recombinant human FGFR2 it was 8 nM; against FGFR3 kinase it was 16 nM; in the experiment on KG-1, 345 nM; in the experiment with SNU-16, 51 nM; with RT-112, 713 nM.

Regarding `CNC(=O)c1cc(CCc2cnc(Nc3cnn(CC4CCN(C)CC4)c3)nc2)c(Cl)c(OC)c1` [Compound 154], the IC50 on Recombinant human FGFR1 came to 12 nM; on Recombinant human FGFR2, 5 nM; at FGFR3 kinase, 9 nM; in the experiment on KG-1, 370 nM; in the experiment with SNU-16, 16 nM; with RT-112, 21 nM.

For the compound `CNC(=O)c1cc(COc2cnc(Nc3ccc(N4C[C@@H](C)N[C@@H](C)C4)c(C)c3)nc2)c(F)c(OC)c1` [Compound 194], the IC50 on Recombinant human FGFR1 was found to be 14 nM; on Recombinant human FGFR2, 14 nM; at FGFR3 kinase, 20 nM; with KG-1, 60 nM; with SNU-16 it was 31 nM; with RT-112, 27 nM.

As to `CCN(CC)CCn1cc(Nc2ncc(OCc3cc(C(=O)NC)cc(OC)c3Cl)cn2)cn1` [Compound 190], the 50% inhibitory concentration (IC50) at Recombinant human FGFR1 was 12 nM; on Recombinant human FGFR2 it was 9 nM; against FGFR3 kinase it was 7 nM; in the experiment with KG-1, 37 nM; in the experiment on SNU-16 it was 16 nM; in the experiment on RT-112 it was 17 nM.

`CNC(=O)c1cc(CCc2cnc(Nc3ccc(C)nc3)nc2)c(F)c(OC)c1` [Compound 26]: the 50% inhibitory concentration (IC50) at Recombinant human FGFR1 was determined as 20 nM; at Recombinant human FGFR2, 12 nM; on FGFR3 kinase it was 27 nM; in the experiment on KG-1, 48 nM; with SNU-16 it was 29 nM; in the experiment with RT-112, 93 nM.

For the compound `CNC(=O)c1cc(CCc2cnc(Nc3cnn(C4COC4)c3)nc2)c(F)c(OC)c1` [Compound 117], the 50% inhibitory concentration (IC50) at Recombinant human FGFR1 amounted to 28 nM; on Recombinant human FGFR2 it was 5 nM; at FGFR3 kinase it was 13 nM; in the experiment on KG-1 it was 31 nM; in the experiment with SNU-16 it was 26 nM; in the experiment on RT-112, 188 nM.

`CNC(=O)c1cc(CCc2cnc(Nc3cnn(C4CCN(C)CC4)c3)nc2)c(Cl)c(OC)c1` [Compound 177]: the IC50 at Recombinant human FGFR1 amounted to 6 nM; at Recombinant human FGFR2, 5 nM; against FGFR3 kinase, 9 nM; in the experiment on KG-1, 25 nM; in the experiment on SNU-16 it was 19 nM; with RT-112, 86 nM.

With `CCNC(=O)c1cc(COc2cnc(Nc3ccc(N4C[C@@H](C)N[C@@H](C)C4)cc3)nc2)c(F)c(OC)c1` [Compound 205], the IC50 at Recombinant human FGFR1 came out at 36 nM; at Recombinant human FGFR2, 25 nM; on FGFR3 kinase it was 28 nM; in the experiment on KG-1, 68 nM; in the experiment on SNU-16, 37 nM; in the experiment on RT-112 it was 97 nM.

Take `CCN(CC)CCCn1cc(Nc2ncc(CCc3cc(C(=O)NC)cc(OC)c3F)cn2)cn1` [Compound 13]: the IC50 is 29 nM at Recombinant human FGFR1; 10 nM on Recombinant human FGFR2; 7 nM on FGFR3 kinase; 498 nM in the experiment on KG-1; 21 nM in the experiment with SNU-16; 59 nM in the experiment with RT-112.

Turning to `CNC(=O)c1cc(CCc2cnc(Nc3ccc(CN4CCOCC4)nc3)nc2)c(F)c(OC)c1` [Compound 98], the 50% inhibitory concentration (IC50) is 32 nM on Recombinant human FGFR1; 15 nM at Recombinant human FGFR2; 26 nM on FGFR3 kinase; 48 nM in the experiment on KG-1; 24 nM in the experiment on SNU-16; 225 nM with RT-112.

Turning to `CNC(=O)c1cc(CCc2cnc(Nc3cnn(CC(=O)N4CCCC4)c3)nc2)c(F)c(OC)c1` [Compound 143], the IC50 came out at 41 nM on Recombinant human FGFR1; 7 nM at Recombinant human FGFR2; 203 nM on FGFR3 kinase; 803 nM with KG-1; 100 nM in the experiment with SNU-16; 991 nM with RT-112.

Regarding `CNC(=O)c1cc(CCc2cnc(Nc3ccc4nncn4c3)nc2)c(F)c(OC)c1` [Compound 67], the IC50 on Recombinant human FGFR1 worked out at 37 nM; at Recombinant human FGFR2 it was 27 nM; at FGFR3 kinase it was 44 nM; in the experiment with KG-1 it was 89 nM; in the experiment with SNU-16 it was 71 nM; in the experiment on RT-112 it was 263 nM.

Consider `CNC(=O)c1cc(COc2cnc(Nc3ccc(N4C[C@@H](C)N[C@@H](C)C4)c(C)c3)nc2)c(Cl)c(OC)c1` [Compound 209], for which the IC50 was found to be 7 nM at Recombinant human FGFR1; 6 nM on Recombinant human FGFR2; 7 nM against FGFR3 kinase; 13 nM with KG-1; 8 nM in the experiment on SNU-16; 16 nM in the experiment on RT-112.

On to `CONC(=O)c1cc(CCc2cnc(Nc3ccc(N4C[C@@H](C)N[C@@H](C)C4)c(C)c3)nc2)cc(OC)c1` [Compound 49], for which the IC50 on Recombinant human FGFR1 turned out to be 6 nM; at Recombinant human FGFR2, 5 nM; at FGFR3 kinase, 8 nM; with KG-1, 75 nM; in the experiment on SNU-16 it was 18 nM; with RT-112, 62 nM.

As for `CNC(=O)c1cc(CCc2cnc(Nc3cnn(C4CCC4)c3)nc2)c(Cl)c(OC)c1` [Compound 81], the IC50 at Recombinant human FGFR1 was determined as 8 nM; at Recombinant human FGFR2 it was 5 nM; on FGFR3 kinase, 11 nM; with KG-1 it was 16 nM; with SNU-16 it was 25 nM; with RT-112 it was 10 nM.

`CNC(=O)c1cc(COc2cnc(Nc3cnn(C)c3)nc2)c(F)c(OC)c1` [Compound 182]: the 50% inhibitory concentration (IC50) at Recombinant human FGFR1 turned out to be 27 nM; at Recombinant human FGFR2 it was 9 nM; against FGFR3 kinase, 10 nM; in the experiment with KG-1, 8 nM; in the experiment with SNU-16 it was 19 nM; in the experiment with RT-112, 33 nM.

These data come from patent US20160052926A1, “NOVEL PYRIMIDINE AND PYRIDINE COMPOUNDS AND USAGE THEREOF” (HUTCHISON MEDIPHARMA LIMITED, priority 2013, published 2016).
